Converted amounts (≈) assume the structure as drawn. Where a SMILES comes first, the peptide text is derived from it. [ ]: non-standard residue; d: D form.

The record followed here is publication PMC7782785, “Outer-membrane-acting peptides and lipid II-targeting antibiotics cooperatively kill Gram-negative pathogens” (Communications Biology, 2021).

One data set deals with HEK-293 cells. Put plainly: Cytotoxicity, cell viability (CellTiter-Glo). To be noted: all the concentrations tested (up to 88 µM). (In ATP-based viability assays light output follows the ATP content of the culture.)
In data set [1] the test system is A. baumannii LMG 01041. Put plainly: microbe, parasite or virus in culture. To be noted: LMG 01041. The procedure:
(§1) MIC tests were performed in triplicate by liquid growth inhibition microdilution assays in sterile polypropylene microtiter plates according to the Clinical and Laboratory Standards Institute (CLSI) guideline for bacteria that grow aerobically. Briefly, the indicator strains were first streaked on the appropriate agar plate, and then single colonies were picked and incubated overnight in liquid broth. The final inoculum of bacteria was 5*10^5 CFU/mL prepared in CAMHB (cationic adjusted Mueller–Hinton broth, Sigma-Aldrich) or CAMHB plus 5% of lysed horse blood (TCS Biosciences, Buckingham, UK) in the case of S. pneumoniae. The antimicrobials were 2-fold serially diluted and 50 µL diluted bacterial suspension was added to each well to make the final volume 100 µL. The microtiter plates and the count plates were incubated at 37 °C for 16–20 h without shaking. Growth inhibition was assessed by measuring the OD600 using a microplate reader (Tecan Infinity F200). The lowest concentration of the antimicrobials that inhibits visible growth of the indicator strain is identified as the MIC value.
(§2) The condition for the tests and the analysis of the plates were performed as described above for the MIC tests.

Data set [2] relates to E. coli LMG 15862. Put plainly: microbe, parasite or virus in culture. To be noted: LMG 15862. On the procedure: as §1, §2
The subject of data set [3] is P. aeruginosa LMG 6395. In words: microbe, parasite or virus in culture. To be noted: LMG 6395. The procedure:
as §1, §2

In data set [4] the test system is K. pneumoniae LMG 20218. In words: microbe, parasite or virus in culture. To be noted: LMG 20218. On the procedure:
as §1, §2

Data set [5] has as its system E. aerogenes LMG 02094. Put plainly: microbe, parasite or virus in culture. To be noted: LMG 02094. On the procedure: as §1, §2
In data set [6] the test system is human red blood cells (hRBCs). In words: Hemolytic activity. To be noted: 1 h. The procedure:
(§3) Hemolytic activity was determined with fresh human red blood cells (hRBCs)[28]. The hRBCs were centrifuged (1000×g, 5 min) and the supernatant was discarded. The pellets were washed three times with PBS and diluted in PBS to make the cell stock solution with a cell density of 2*10^8 cells/mL. […] 1% Triton X-100 and PBS were used as controls. The cells were incubated at 37 °C for 1 h and centrifuged at 2000 rpm for 5 min. The supernatant was transferred to a new 96-well plate and hemolysis was monitored by measuring the absorbance at 450 nm (OD450). Hemolysis levels were calculated as percentage. % hemolysis = 100 × (As−A0)/(At−A0), where As, A0, and At are the absorbance of the hRBCs suspension in PBS with antimicrobial agents (As), without antimicrobial agents (A0), and with 1% Triton X-100 (At). […] For the TI calculation (TI = MHC/GM), other factors as the GM (geometric mean of MIC value of all the Gram-negative strains tested) were calculated.

Data set [7] relates to A. baumannii LMG 01041. The procedure: (§4) For the synergy test, standard checkerboard broth microdilution assays were conducted to test the synergistic effect of combined antimicrobials using the same condition as before[51],[56]. […] The initial concentration of both peptides was their individual MIC. 50 µL fresh bacterial suspension prepared as above was added to the wells already containing the antimicrobial compound mixture to achieve 100 µL final volume per well.
(§5) The fractional inhibitory concentration (FIC) indices[57] were calculated using the formula FICI = FICa + FICb = MICac/MICa + MICbc/MICb, to determine whether the combination is additive, synergistic or antagonistic[51],[57]. The MICa and MICb is the MIC of compound A or B alone, respectively. MICac is the MIC of compound A in combination with compound B and MICbc is the MIC of compound B when it was combined with compound A. The FIC corresponds to the MIC of a compound in combination with the other compound, divided by the MIC of the compound alone. FICa is FIC of compound A while FICb is FIC of compound B. The FICI was interpreted according to EUCAST[58] as follows: synergistic, FICI ≤ 0.5; additive,0.5 < FICI ≤ 1; indifferent, 1 < FICI < 2; antagonistic, FICI ≥ 2.
as §2

The subject of data set [8] is E. coli LMG 15862. The procedure: as §4, §5, §2
Data set [9] relates to P. aeruginosa LMG 6395. On the procedure: as §4, §5, §2
Data set [10] concerns K. pneumoniae LMG 20218. To be noted: LMG 20218. The procedure: as §4, §5, §2
The test system of data set [11] is E. aerogenes LMG 02094. On the procedure:
as §4, §5, §2

The subject of the next data set is S. aureus LMG8224. Format: cell-based. On the procedure: as §1
In a further data set the test system is E. faecium LMG16003. Format: cell-based. On the procedure: as §1
A further data set relates to E. faecalis V583. Format: cell-based. On the procedure: as §1
Another data set has as its system S. pneumoniae R6. Put plainly: MIC, broth microdilution. In kind it is cell-based. To be noted: S. pneumoniae R6 (Gram-positive); compound alone; CAMHB plus 5% lysed horse blood. The procedure:
as §1

The conditions of data set [12]: human plasma (EDTA K2), 3.2 mM peptide, 37 °C, 200 rpm, samples at 1, 3, 6 h; read-out halo size in spot-on-lawn against K. pneumoniae LMG 20218; triplicate. The procedure: For plasma stability, the peptides were lyophilized and resuspended in plasma or PBS (as a control) at a final concentration of 3.2 mM. After that, the peptides were incubated with shaking (200 rpm) during 6 h at 37 °C. At time 1, 3, and 6 h, 10 µL samples were tested against K. pneumoniae LMG 20218 by a spot-on-lawn test. Reduction in the size of the halo was related to the degradation of the peptide. The test was performed in triplicate.

Data set [13] relates to all the Gram-negative strains tested. In words: organism not typed. On the procedure: as §1, §2
as §3, with “The cells were incubated at 37 °C for 1 h and centrifuged at 2000 rpm for 5 min.” left out

Method for HEK-293 cells: 96-well plates were seeded with HEK-293 cells at a concentration of 3*10^5 cells/well in 100 µL of DMEM growth medium supplemented with 1% NEAA and 10% FBS. Border wells were filled with 100 µL of sterile PBS. […] ATP levels were measured by adding 50 µL of CellTiter-Glo reagent (Promega, Madison, US) to each well, and luminescence was measured with a SpectraMax i3 microplate reader after 5 minutes of incubation. The potential effect of the tested compounds on cell viability was determined by comparing the signal obtained in the presence of different concentrations of the compounds with those obtained in the control wells. All these tests were performed in triplicate.

As to `CC[C@@H](C)[C@@H](NC(=O)[C@H](N)CCCNC(=N)N)C(=O)N[C@@H](C(=O)N[C@H](CCC(N)=O)C(=O)N[C@H](CCCNC(=N)N)C(=O)N[C@@H](C(=O)N[C@H](CCCCN)C(=O)N[C@H](CCCCN)C(=O)N[C@H](Cc1c[nH]c2ccccc12)C(=O)N[C@H](CC(C)C)C(=O)N[C@H](CCCNC(=N)N)C(N)=O)[C@H](C)CC)C(C)C` [D-11] (H-[dR][dI][dV][dQ][dR][dI][dK][dK][dW][dL][dR]-NH2), the “effect on viability of HEK-293 cells” value with HEK-293 cells is “did not affect the viability”. The MIC against A. baumannii LMG 01041 [1] is listed as 8 µM (≈ 12 µg/mL); in the data set with E. coli LMG 15862 [2], 4 µM (≈ 5.98 µg/mL); in the data set on P. aeruginosa LMG 6395 [3], 16 µM (≈ 23.9 µg/mL); in the data set on K. pneumoniae LMG 20218 [4], 32 µM (≈ 47.8 µg/mL); against E. aerogenes LMG 02094 [5], 32 µM (≈ 47.8 µg/mL); in the data set with S. aureus LMG8224, over 85 µM. In addition, the results for the MIC in the data set on E. faecium LMG16003, in the data set on E. faecalis V583 and in the data set with S. pneumoniae R6 were 10.6 µM (≈ 15.8 µg/mL), 64 µM (≈ 95.7 µg/mL) and over 85 µM, respectively. Besides, the “TI, therapeutic index (MHC/GM)” value in [6] is listed as 39.03. Also, the “MHC, minimal hemolytic concentration that caused 10% hemolysis of hRBCs” value in data set [6] (red cells of human) turned out to be 1200 µM. Further, the “MHA, mean hemolytic activity” value in data set [6] (red cells of human, 50 µM) stood at 0%; in data set [6] (red cells of human, 100 µM) it was 0%; in [6] (red cells of human, 200 µM), 0%; in [6] (red cells of human, 400 µM), 0%; in data set [6] (red cells of human, 600 µM) it was 0%. The “FICI, peptide + nisin” value with A. baumannii LMG 01041 [7] was 0.094; in the data set on E. coli LMG 15862 [8] it was 0.375; in the data set on P. aeruginosa LMG 6395 [9] it was 0.156; with K. pneumoniae LMG 20218 [10] it was 0.078; in the data set with E. aerogenes LMG 02094 [11], 0.188. The stability in plasma result in data set [12] is recorded as “completely resistant to degradation in plasma”. Further, the “GM, MIC geometric mean against all the Gram-negative strains tested” value in [13] worked out at 30.75 µM.
